Where two headings read alike, the source gives them in different places.
How the values were obtained:
nitric oxide (NO) = assay: Nitric oxide synthesis induction (Griess) in infected macrophages; type: cell-based, murine; conditions: supernatant of RAW 264.7 macrophages infected with L. (V.) braziliensis
Protocol: To evaluate the induction of nitric oxide (NO) synthesis, the following procedure was conducted: In 96-well plates, 100 μL of the supernatants obtained from the macrophage infection assays by L. (V.) braziliensis were placed. An equal volume of Griess® reagent (obtained from Sigma-Aldrich, St. Louis, MO, USA) was added to each well. In parallel, the same procedure was carried out using known concentrations of sodium nitrite (NaNO2, obtained from Vertec Química Fina, Duque de Caxias, RJ, Brazil) ranging from 125 to 2 μmol/L, which were prepared in RPMI medium. This was performedto generate a standard curve. The plates were then incubated at room temperature for 10 min. Subsequently, the absorbance of the samples was measured in a plate reader at a wavelength of 545 nm. The concentration of nitrite in the supernatants was determined by interpolating the absorbance values onto the standard curve.

[1] = system: L. (V.) braziliensis axenic amastigotes; assay: Antileishmanial activity on axenic amastigotes (MTT, 72 h); type: cell-based, Leishmania (Viannia) braziliensis
Protocol: In vitro amastigogenesis was performed by transformation from promastigotes at the stationary phase of growth to obtention axenic amastigotes. This process involved altering the culture conditions to Schneider’s medium with a pH of 5.5, supplementing them with 5% FBS, and incubating them at a temperature of 32 °C [17].
Assessment of antileishmanial activity against promastigote and amastigote axenic forms of parasites followed the method described by Rodrigues et al. and involved the following steps: L. (V.) braziliensis parasites were cultured in 96-well plates at a concentration of 1 × 10^6 parasites per well. Each well contained 100 μL of supplemented Schneider medium. Serial concentrations of the test substances, ranging from 50 to 1.56 μmol/L, were prepared. Reference drugs, meglumine antimoniate (20 to 40,000 μmol/L) and amphotericin B (0.031 to 2 μmol/L) were also prepared. These concentrations were used to assess the effects of the test substances in comparison to reference drugs. The plates were incubated in a BOD incubator at 26 °C for 72 h. After the 72 h incubation period, 10 μL of MTT (5 mg/mL) was added to each well. The plates were then incubated for an additional 4 h. At the end of the 4 h incubation, formazan crystals formed by the reduction of the MTT salt were solubilized by adding 50 μL of a 10% (w/v) sodium dodecyl sulfate (SDS) solution in distilled water. Absorbance was measured using a microplate reader at a wavelength of 540 nm (Biosystems ELx800 model, Curitiba, PR, Brazil). This measurement quantified the metabolic activity of the parasites, which is indicative of their viability and proliferation. Schneider medium containing 0.2% DMSO was used as a negative control in the tests.

TNF-α = assay: Cytokine production in supernatant of infected macrophages (ELISA), TNF-α; type: cell-based, murine; conditions: supernatant of RAW 264.7 macrophages infected with L. (V.) braziliensis
Description: To assess the production of cytokines TNF-α and IL-12 (associated with Th1 response), as well as IL-10 and IL-6 (associated with Th2 response), in the supernatants of the macrophage infection assay, the sandwich enzyme-linked immunosorbent assay (ELISA) method was employed, following the manufacturer’s instructions (eBioscience^TM, San Diego, CA, USA). Initially, capture antibodies specific to TNF-α, IL-6, IL-10, and IL-12 were sensitized in ELISA plates (NUNC-ImmunoTM, Sigma-Aldrich, St. Louis, MO, USA). The plates were incubated at 4 °C for 18 h. After the incubation period, all wells were washed with a solution containing 0.05% PBS and Tween 20 (Sigma-Aldrich, St. Louis, MO, USA). A blocking solution containing 10% FBS in PBS was added to the wells and incubated for 1 h. Subsequently, the wells were washed again. The supernatant obtained from the macrophage infection assay was added to the respective wells. Known concentrations of recombinant cytokines (TNF-α, IL-10, IL-6, and IL-12) were also added to the plate in parallel, covering a range from high to low concentrations. The plates were maintained at 4 °C for another 18 h. Following this incubation, additional washes were performed. The detector complex, consisting of biotinylated detection antibodies, was added to the wells. The plates were incubated for an additional hour. After another round of washing, the enzymatic complex avidin-peroxidase was added to each well. The plates were incubated for 30 min at room temperature. The reaction was initiated by adding a substrate solution containing tetramethylbenzidine and hydrogen peroxide. This reaction was allowed to proceed for 15 min. To stop the reaction, 1N sulfuric acid was added to each well. The absorbance was measured in a plate reader at a wavelength of 450 nm. The concentration of cytokines (TNF-α, IL-10, IL-6, and IL-12) in the supernatants was determined by interpolation from the standard curve.

[2] = system: L. (L.) infantum promastigotes; parameters: method as in PMID 36977142; conditions: read-out: IC50 antipromastigote activity; cited from earlier work

| Compound | NO level (nitric oxide (NO)) | EC50 [1] [µM] | EC50 ([1]; Leishmania braziliensis) [µM] | TNF-α level (TNF-α) | IC50 [2] [µM] |
| --- | --- | --- | --- | --- | --- |
| O=C(/N=C(/NCc1ccccc1)Nc1ccc([N+](=O)[O-])cc1)c1ccccc1 [LQOF-G1, (Z)-N-benzoyl-N-benzyl-N-(4-nitrophenyl)guanidine] | increased | 4.3 ± 0.2 | 4.27 | increased |  |
| O=C(/N=C(/NCc1ccccc1)Nc1ccc(Br)cc1)c1ccccc1 [LQOF-G2, (Z)-N-benzoyl-N-benzyl-N-(4-bromophenyl)guanidine] | increased |  | 5 ± 0.8 | increased | 12.7 |
| CC(C)(C)c1ccc(N/C(=N\C(=O)c2ccccc2)NCc2ccccc2)cc1 [LQOF-G6, (Z)-N-benzoyl-N-benzyl-N-(4-tert-butylphenyl)guanidine] | increased |  | 4.3 ± 0.7 | increased | 24.4 |
| O=C(/N=C(/NCc1ccccc1)Nc1ccc(I)cc1)c1ccccc1 [LQOF-G7, (Z)-N-benzoyl-N-benzyl-N-(4-iodophenyl)guanidine] |  |  | 6.1 |  | 23.6 |
